Article PMC8948939 (Pharmaceutics, 2022)
Where two headings read alike, the source gives them in different places.

Experiments:
CYP3A4 [1] = details: mixed inhibition, cited from earlier work
[2] = cited from earlier work
[3] = tested on: human liver microsomes (HLM); assay: Michaelis-Menten kinetics of voriconazole N-oxidation in human liver microsomes; assay type: in vitro ADME; details: N-oxidation of voriconazole; HLM 0.2 mg/mL
[4] = as above; assay type: in vitro ADME; details: human, human liver microsomes, pH 7.5
CYP2C9 = CYP2C9 (Homo sapiens, UniProt P11712); parameters: purchased Corning Inc; details: read-out: KM of VRC N-oxidation; cited from earlier work
CYP2C9, sequence (P11712 whole entry): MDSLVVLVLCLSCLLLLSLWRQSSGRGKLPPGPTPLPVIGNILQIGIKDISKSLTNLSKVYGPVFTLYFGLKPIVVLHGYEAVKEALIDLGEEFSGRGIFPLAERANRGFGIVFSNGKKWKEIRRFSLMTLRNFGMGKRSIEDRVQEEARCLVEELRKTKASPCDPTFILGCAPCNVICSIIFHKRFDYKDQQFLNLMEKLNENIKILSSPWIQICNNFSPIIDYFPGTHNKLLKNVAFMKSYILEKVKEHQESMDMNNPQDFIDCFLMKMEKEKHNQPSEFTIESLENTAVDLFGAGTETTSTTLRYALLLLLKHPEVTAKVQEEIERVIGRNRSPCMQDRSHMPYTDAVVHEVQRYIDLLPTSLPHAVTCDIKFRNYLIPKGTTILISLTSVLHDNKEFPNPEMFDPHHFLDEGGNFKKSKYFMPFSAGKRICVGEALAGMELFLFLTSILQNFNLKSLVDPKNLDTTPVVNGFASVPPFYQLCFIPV

CYP3A4 [5] = biological target: T1, CYP3A4 (Homo sapiens, UniProt P08684); parameters: purchased Corning Inc; details: cited from earlier work
T1 sequence (P08684 whole entry): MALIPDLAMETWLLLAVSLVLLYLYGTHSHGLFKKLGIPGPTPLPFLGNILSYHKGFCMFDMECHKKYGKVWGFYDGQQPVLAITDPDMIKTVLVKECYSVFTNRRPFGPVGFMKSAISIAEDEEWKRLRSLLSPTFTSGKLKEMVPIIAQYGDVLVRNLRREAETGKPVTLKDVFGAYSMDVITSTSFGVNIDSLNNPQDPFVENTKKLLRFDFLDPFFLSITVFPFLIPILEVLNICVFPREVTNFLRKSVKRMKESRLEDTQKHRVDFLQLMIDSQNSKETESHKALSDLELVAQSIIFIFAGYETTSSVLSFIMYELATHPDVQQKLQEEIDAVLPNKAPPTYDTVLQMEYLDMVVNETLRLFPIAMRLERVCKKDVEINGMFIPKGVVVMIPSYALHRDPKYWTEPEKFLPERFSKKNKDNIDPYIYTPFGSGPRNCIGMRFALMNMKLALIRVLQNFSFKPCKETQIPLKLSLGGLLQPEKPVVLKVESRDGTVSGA

CYP3A4 [6] = biological target: T1, CYP3A4; assay: Michaelis-Menten kinetics of voriconazole N-oxidation by rhCYP3A4
CYP2C19 = CYP2C19 (Homo sapiens, UniProt P33261); details: read-out: KM of VRC N-oxidation, recombinant CYP2C19, cited from earlier work
CYP3A4 [7] = assay: Contribution of CYP3A4 to voriconazole N-oxidation, extrapolation from rhCYP with ISEF; assay type: in vitro ADME; details: human, pH 7.5, VRC N-oxidation, read-out: extrapolated CLint,CYPi,HLM (CYP3A4)
Source text: Towards the Elucidation of the Pharmacokinetics of
Josefine Schulz 1, Antonia Thomas 1, Ayatallah Saleh 1,2, Gerd Mikus 1,3, Charlotte Kloft 1,† and Robin Michelet 1,*,† 1 Department of Clinical Pharmacy & Biochemistry, Institute of Pharmacy, Freie Universitaet Berlin, Kelchstraße 31, 12169 Berlin, Germany
2 Graduate Research Training Program PharMetrX, 12169 Berlin/Potsdam, Germany 3 Department of Clinical Pharmacology and Pharmacoepidemiology, University Hospital Heidelberg, Im Neuenheimer Feld 410, 69120 Heidelberg, Germany
* Correspondence: robin.michelet@fu-berlin.de; Tel.: +49-30-838-50659
† These authors contributed equally to this work
Supplementary Section S1. Marker reactions for CYP2C19, CYP2C9 and CYP3A4 […]
for CYP3A4 [1,2] were used to determine (i) intersystem extrapolation factors (ISEF), (ii) […]
(i) Experiments for the determination of Michaelis-Menten kinetics in HLM were performed at protein concentrations of 0.02, 0.04 and 0.05 mg/mL for the marker reactions of CYP2C19, CYP2C9 and CYP3A4 (n = 3 each), respectively. Two samples were taken from each incubation after 15 and 25 min for investigations on CYP2C19, after 5 and 10 min for CYP2C9 and after 7 and 12 min for CYP3A4, respectively. […]
were applied as substrate concentrations.
For investigations in rhCYP concentrations of 2.5 pmol/mL rhCYP2C19 (n = 3), […]
respectively. […]

[8] = taken from literature for IVIVE; ref 7 (supplement); cited from earlier work
[9] = tested on: human intestine microsomes (HIM); assay: Michaelis-Menten kinetics of voriconazole N-oxidation in human intestine microsomes; assay type: in vitro ADME; details: N-oxidation of voriconazole; HIM 0.5 mg/mL
[10] = as above; assay type: in vitro ADME; details: human, human intestine microsomes, pH 7.5
HLM = HLM derived from three individuals, cited from earlier work

## C[C@@H](c1ncncc1F)[C@](O)(Cn1cncn1)c1ccc(F)cc1F [VRC, voriconazole]
CYP3A4 [1]; competitive part, ref Jeong et al. 43, read-out: Ki (competitive)
  Ki: […]
CYP3A4 [1]; noncompetitive part, ref Jeong et al. 43, read-out: Ki (noncompetitive)
  Ki: […]
[2]; CYP2C19 poor metabolizers
  bioavailability: […]
[2]; clinical trial, CYP2C19 normal and poor metabolizers with/without ritonavir, ref Mikus et al. 76
  share of CYP3A4 in the metabolism: […]
[2]; extensive metabolizers
  bioavailability: 75%
[3]
  Vmax,HLM (95% CI): […]
[4]; HLM, ratio of Vmax and KM
  microsomal CLint: […]
[4]; read-out: KM (95% CI)
  Km: […]
CYP2C9
  Km: 20 µM
CYP3A4 [5]; read-out: KM of VRC N-oxidation, ref 31
  Km: 235 µM
CYP3A4 [5]; read-out: KM of VRC N-oxidation, ref 33
  Km: […]
CYP3A4 [5]; ref 31
  Vmax of VRC N-oxidation: […]
CYP3A4 [5]; ref 33
  Vmax of VRC N-oxidation: […]
CYP3A4 [6]; N-oxidation of voriconazole
  Vmax,rhCYP (95% CI): […]
CYP3A4 [6]; ratio of Vmax and KM
  CLint of VRC N-oxidation: […]
CYP2C19; ref 31
  Km: […]
CYP2C19; ref 33
  Km: […]
CYP3A4 [7]; ISEF based on CLint of the marker reactions
  microsomal CLint: […]
CYP3A4 [7]; ISEF based on Vmax
  microsomal CLint: […]
[8]
  Fraction unbound in plasma (fuP): […]
[9]
  Vmax,HIM (95% CI): […]
[10]; HIM, ratio of Vmax and KM
  microsomal CLint: […]
[10]; read-out: KM (95% CI)
  Km: […]
HLM
  Vmax of VRC N-oxidation: […]
HLM; read-out: KM of VRC N-oxidation
  Km: 8.1 µM
